{"source": "ChEMBL document CHEMBL4808186", "about": "“Structure-Based Discovery of Pyrimidine Aminobenzene Derivatives as Potent Oral Reversal Agents against P-gp- and BCRP-Mediated Multidrug Resistance” (J Med Chem, 2021)", "key": {"[1]": {"tested_on": "MDCK-II", "experiment": "Inhibition of BCRP-mediated multidrug resistance in MDCK-II cells assessed as mitoxantrone accumulation at 0.1 to 5 uM pretreated 1 hr followed by treated with mitoxantrone measured after 180 mins by flow cytometry", "type": "cell-based", "conditions": "Canis lupus familiaris, dose 0.1-5 µM, time 240.0 min"}, "[2]": {"tested_on": "MDCK-II", "experiment": "cells", "conditions": "Canis lupus familiaris, 48 h", "description": "Cytotoxicity against MDCK-II cells incubated for 48 hrs by MTT assay"}, "[3]": {"tested_on": "K562/A02", "experiment": "Cytotoxicity against P-gp overexpressing human K562/A02 cells incubated for 48 hrs by MTT assay", "type": "functional, cell-based", "conditions": "K562/A02, 48 h, read-out: IC50"}, "[4]": {"tested_on": "K562", "experiment": "Cytotoxicity against human K562 cells incubated for 48 hrs by MTT assay", "type": "functional, cell-based", "conditions": "K562, 48 h"}, "[5]": {"tested_on": "MDCK-II", "experiment": "cells", "conditions": "Canis lupus familiaris, 48 h", "remark": "listed apart in the source", "description": "Cytotoxicity against BCRP-overexpressing MDCK-II cells incubated for 48 hrs by MTT assay"}, "[6]": {"target": "T1, ATP-dependent translocase ABCB1 (Homo sapiens, UniProt P08183)", "T1 sequence (P08183 whole entry)": "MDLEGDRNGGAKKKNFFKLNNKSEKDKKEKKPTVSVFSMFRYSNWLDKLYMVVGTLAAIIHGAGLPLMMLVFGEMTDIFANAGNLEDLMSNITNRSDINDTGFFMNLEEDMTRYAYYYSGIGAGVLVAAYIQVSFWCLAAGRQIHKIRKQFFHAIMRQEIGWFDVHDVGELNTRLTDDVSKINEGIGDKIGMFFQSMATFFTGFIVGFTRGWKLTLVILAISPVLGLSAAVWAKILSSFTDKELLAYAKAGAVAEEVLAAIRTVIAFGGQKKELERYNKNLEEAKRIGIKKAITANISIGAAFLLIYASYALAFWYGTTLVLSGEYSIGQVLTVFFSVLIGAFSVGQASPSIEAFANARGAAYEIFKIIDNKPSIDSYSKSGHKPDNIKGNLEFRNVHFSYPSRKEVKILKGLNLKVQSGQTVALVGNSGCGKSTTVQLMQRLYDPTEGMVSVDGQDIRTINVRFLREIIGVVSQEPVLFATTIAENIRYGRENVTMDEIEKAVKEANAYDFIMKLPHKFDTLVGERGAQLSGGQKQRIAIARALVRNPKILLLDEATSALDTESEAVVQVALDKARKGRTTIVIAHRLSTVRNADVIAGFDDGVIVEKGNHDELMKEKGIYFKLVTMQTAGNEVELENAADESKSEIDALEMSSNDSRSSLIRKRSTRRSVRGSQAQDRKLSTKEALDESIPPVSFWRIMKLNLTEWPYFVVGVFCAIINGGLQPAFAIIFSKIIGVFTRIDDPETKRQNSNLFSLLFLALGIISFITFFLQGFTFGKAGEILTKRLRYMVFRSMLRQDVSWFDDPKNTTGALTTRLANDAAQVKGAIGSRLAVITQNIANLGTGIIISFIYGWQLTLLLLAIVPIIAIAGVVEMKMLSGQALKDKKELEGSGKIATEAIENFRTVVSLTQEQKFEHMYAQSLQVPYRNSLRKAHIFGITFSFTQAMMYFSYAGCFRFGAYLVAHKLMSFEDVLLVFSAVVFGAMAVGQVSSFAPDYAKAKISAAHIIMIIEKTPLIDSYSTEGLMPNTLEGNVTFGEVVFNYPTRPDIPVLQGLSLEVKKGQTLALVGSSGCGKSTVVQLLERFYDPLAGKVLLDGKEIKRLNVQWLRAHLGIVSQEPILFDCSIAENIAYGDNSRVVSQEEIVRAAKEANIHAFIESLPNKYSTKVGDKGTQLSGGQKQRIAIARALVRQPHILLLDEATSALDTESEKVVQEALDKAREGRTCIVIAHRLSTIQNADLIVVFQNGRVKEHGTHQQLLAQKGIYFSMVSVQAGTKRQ", "experiment": "Inhibition of P-gp-mediated multidrug resistance in human K562/A02 cells assessed as Adriamycin accumulation pretreated 1 hr followed by treated with adriamycin measured after 180 mins by flow cytometry", "type": "cell-based", "conditions": "k562/a02, 4 h, time 240 min"}, "[7]": {"target": "T1, ATP-dependent translocase ABCB1", "experiment": "Inhibition of P-gp-mediated multidrug resistance in human K562/A02 cells assessed as Adriamycin accumulation at 1 to 10 uM pretreated 1 hr followed by treated with adriamycin measured after 180 mins by fluorescence microscopy", "type": "cell-based", "conditions": "k562/a02, 4 h, dose 1-10 µM, time 240 min"}, "[8]": {"experiment": "AUC (0 to t) in Sprague-Dawley rat at 5 mg/kg, iv by UHPLC-MS analysis", "type": "ADME, organism-based", "set-up": "dose 5 mg/kg", "conditions": "in vivo"}, "[9]": {"experiment": "Cmax in Sprague-Dawley rat at 20 mg/kg, po in presence of N-(2-(6,7-Dimethoxy-3,4-dihydroisoquinolin-2(1H)-yl)ethyl)-3-((4-(furan-2-yl)pyrimidin-2-yl)amino)-4-methylbenzamide by UHPLC-MS analysis", "type": "ADME, organism-based", "set-up": "route oral, dose 20 mg/kg", "conditions": "in vivo"}, "[10]": {"experiment": "Tmax in Sprague-Dawley rat at 5 mg/kg, iv by UHPLC-MS analysis", "type": "ADME, organism-based", "conditions": "in vivo"}, "[11]": {"experiment": "in vivo", "conditions": "Sprague-Dawley, rat, iv, 5 mg/kg", "description": "Half life in Sprague-Dawley rat at 5 mg/kg, iv by UHPLC-MS analysis"}, "[12]": {"experiment": "Apparent oral clearance in Sprague-Dawley rat at 20 mg/kg, po by UHPLC-MS analysis", "type": "ADME, organism-based", "conditions": "in vivo"}, "[13]": {"experiment": "Tmax in Sprague-Dawley rat at 20 mg/kg, po by UHPLC-MS analysis", "type": "ADME, organism-based", "conditions": "in vivo"}, "[14]": {"experiment": "Tmax in Sprague-Dawley rat at 20 mg/kg, po in presence of N-(2-(6,7-Dimethoxy-3,4-dihydroisoquinolin-2(1H)-yl)ethyl)-3-((4-(furan-2-yl)pyrimidin-2-yl)amino)-4-methylbenzamide by UHPLC-MS analysis", "type": "ADME, organism-based", "conditions": "in vivo"}, "[15]": {"experiment": "Apparent oral volume of distribution in Sprague-Dawley rat at 20 mg/kg, po by UHPLC-MS analysis", "type": "ADME, organism-based", "conditions": "in vivo"}, "[16]": {"experiment": "Apparent oral clearance in Sprague-Dawley rat at 5 mg/kg, iv by UHPLC-MS analysis", "type": "ADME, organism-based", "conditions": "in vivo"}, "[17]": {"experiment": "Oral bioavailability in Sprague-Dawley rat at 20 mg/kg by UHPLC-MS analysis", "type": "ADME, organism-based", "conditions": "in vivo"}, "[18]": {"experiment": "AUC (0 to t) in Sprague-Dawley rat at 20 mg/kg, po by UHPLC-MS analysis", "type": "ADME, organism-based", "set-up": "dose 20 mg/kg", "conditions": "in vivo"}, "[19]": {"experiment": "in vivo", "conditions": "Sprague-Dawley, rat, po, 20 mg/kg", "description": "Half life in Sprague-Dawley rat at 20 mg/kg, po by UHPLC-MS analysis"}, "[20]": {"experiment": "Cmax in Sprague-Dawley rat at 20 mg/kg, po by UHPLC-MS analysis", "type": "ADME, organism-based", "set-up": "route oral, dose 20 mg/kg", "conditions": "in vivo"}, "[21]": {"experiment": "Apparent oral clearance in Sprague-Dawley rat at 20 mg/kg, po in presence of N-(2-(6,7-Dimethoxy-3,4-dihydroisoquinolin-2(1H)-yl)ethyl)-3-((4-(furan-2-yl)pyrimidin-2-yl)amino)-4-methylbenzamide by UHPLC-MS analysis", "type": "ADME, organism-based", "conditions": "in vivo"}, "[22]": {"experiment": "AUC (0 to t) in Sprague-Dawley rat at 20 mg/kg, po in presence of N-(2-(6,7-Dimethoxy-3,4-dihydroisoquinolin-2(1H)-yl)ethyl)-3-((4-(furan-2-yl)pyrimidin-2-yl)amino)-4-methylbenzamide by UHPLC-MS analysis", "type": "ADME, organism-based", "set-up": "dose 20 mg/kg", "conditions": "in vivo"}, "[23]": {"experiment": "Bioavailability in Sprague-Dawley rat at 5 mg/kg, iv by UHPLC-MS analysis", "type": "ADME, organism-based", "conditions": "in vivo"}, "[24]": {"experiment": "Apparent oral volume of distribution in Sprague-Dawley rat at 20 mg/kg, po in presence of N-(2-(6,7-Dimethoxy-3,4-dihydroisoquinolin-2(1H)-yl)ethyl)-3-((4-(furan-2-yl)pyrimidin-2-yl)amino)-4-methylbenzamide by UHPLC-MS analysis", "type": "ADME, organism-based", "conditions": "in vivo"}, "[25]": {"experiment": "Oral bioavailability in Sprague-Dawley rat at 20 mg/kg in presence of N-(2-(6,7-Dimethoxy-3,4-dihydroisoquinolin-2(1H)-yl)ethyl)-3-((4-(furan-2-yl)pyrimidin-2-yl)amino)-4-methylbenzamide by UHPLC-MS analysis", "type": "ADME, organism-based", "conditions": "in vivo"}, "[26]": {"experiment": "Cmax in Sprague-Dawley rat at 5 mg/kg, iv by UHPLC-MS analysis", "type": "ADME, organism-based", "set-up": "route intravenous, dose 5 mg/kg", "conditions": "in vivo"}, "[27]": {"experiment": "Apparent oral volume of distribution in Sprague-Dawley rat at 5 mg/kg, iv by UHPLC-MS analysis", "type": "ADME, organism-based", "conditions": "in vivo"}}, "note": "pIC50: −log10 of the molar value. Calls of active or inactive are those of the source. The calls are words filed in the database; no cut-off is given here."}
{"smiles": "COc1ccc2c3c([nH]c2c1)[C@H](CC(C)C)N1C(=O)[C@H](CCC(=O)OC(C)(C)C)NC(=O)[C@@H]1C3", "values": [{"measurement": "Activity", "setting": "[1]", "value": "Active"}, {"measurement": "pIC50", "setting": "[2]", "value": 4.06}, {"measurement": "pIC50", "setting": "[3]", "value": 4.23}, {"measurement": "pIC50", "setting": "[4]", "value": 4.15}, {"measurement": "pIC50", "setting": "[5]", "value": 4.23}]}
{"smiles": "COc1ccc(CCN(C)CCCC(C#N)(c2ccc(OC)c(OC)c2)C(C)C)cc1OC", "note": "(centres undefined)", "values": [{"measurement": "Activity", "setting": "[6]", "value": "Dose-Dependent Effect"}, {"measurement": "Activity", "setting": "[7]", "value": "Active"}, {"measurement": "pIC50", "setting": "[3]", "value": "< 4.00"}, {"measurement": "pIC50", "setting": "[4]", "value": "< 4.00"}]}
{"smiles": "CC(=O)O[C@H]1C(=O)[C@@]2(C)[C@H]([C@H](OC(=O)c3ccccc3)[C@]3(O)C[C@H](OC(=O)[C@H](O)[C@@H](NC(=O)c4ccccc4)c4ccccc4)C(C)=C1C3(C)C)[C@]1(OC(C)=O)CO[C@@H]1C[C@@H]2O", "note": "[PACLITAXEL]", "values": [{"measurement": "AUC(0-t)", "setting": "[8]", "value": 1730, "unit": "ng·h/mL"}, {"measurement": "Cmax", "setting": "[9]", "value": 853, "unit": "ng/mL"}, {"measurement": "Tmax", "setting": "[10]", "value": 0.44, "unit": "h"}, {"measurement": "half-life", "setting": "[11]", "value": 7.2, "unit": "min"}, {"measurement": "CL/F", "setting": "[12]", "value": 546, "unit": "mL/min"}, {"measurement": "Tmax", "setting": "[13]", "value": 2, "unit": "h"}, {"measurement": "Tmax", "setting": "[14]", "value": 2.65, "unit": "h"}, {"measurement": "Vd/F", "setting": "[15]", "value": 67.4, "unit": "L"}, {"measurement": "CL/F", "setting": "[16]", "value": 2.88, "unit": "L/h"}, {"measurement": "bioavailability", "setting": "[17]", "value": 8.8, "unit": "%"}, {"measurement": "AUC(0-t)", "setting": "[18]", "value": 611, "unit": "ng·h/mL"}, {"measurement": "half-life", "setting": "[19]", "value": 1.35, "unit": "h"}, {"measurement": "Cmax", "setting": "[20]", "value": 233, "unit": "ng/mL"}, {"measurement": "CL/F", "setting": "[21]", "value": 4.43, "unit": "L/h"}, {"measurement": "AUC(0-t)", "setting": "[22]", "value": 4490, "unit": "ng·h/mL"}, {"measurement": "F", "setting": "[23]", "value": 100, "unit": "%"}, {"measurement": "Vd/F", "setting": "[24]", "value": 19.06, "unit": "L"}, {"measurement": "bioavailability", "setting": "[25]", "value": 64.7, "unit": "%"}, {"measurement": "Cmax", "setting": "[26]", "value": 926, "unit": "ng/mL"}, {"measurement": "Vd/F", "setting": "[27]", "value": 5.06, "unit": "L"}]}
